What all share (conditions): stereoisomer not certain
The nature of series [1]: RP, Waters CORTECS T3, 100 × 2.1 mm, 2.7 µm, 0.25 mL/min, estimated dead time 0.88 min; A: water + 0.1% formic acid, pH 3; B: methanol + 0.1% formic acid, pH 3; gradient (min/%B) 0/5 5/5 25/95 25.1/100 35/100 35.1/5 45/5.
A short description of series [2]: HILIC, Merck SeQuant ZIC-HILIC, 150 × 2.1 mm, 5 µm, 0.75 mL/min, estimated dead time 0.44 min; A: water + 0.1% acetic acid + 10 mM ammonium acetate, pH 4; B: 5% water + 95% acetonitrile + 0.1% acetic acid + 10 mM ammonium acetate, pH 4; gradient (min/%B) 0/95 5/95 20/57 25/57 30/95 40/95.
Series [3] is described as follows: RP, Waters CORTECS T3, 100 × 2.1 mm, 2.7 µm, 0.3 mL/min, estimated dead time 0.73 min; A: water + 0.1% formic acid, pH 3; B: methanol + 0.1% formic acid, pH 3; gradient (min/%B) 0/0 5/0 25/100 30/100 30.1/0 35/0.
A short description of series [4]: RP, Waters ACQUITY UPLC BEH C18, 100 × 2.1 mm, 1.7 µm, 0.2 mL/min, estimated dead time 1.1 min; A: water + 0.1% formic acid, pH 3; B: methanol + 0.1% formic acid, pH 3; gradient (min/%B) 0/5 5/5 25/100 30/100 30.1/5 35/5.
Series [5] can be described thus: RP, Thermo Scientific Hypercarb, 150 × 2.1 mm, 5 µm, 0.1 mL/min, estimated dead time 3.3 min; A: water + 0.1% formic acid, pH 3; B: methanol + 0.1% formic acid, pH 3; gradient (min/%B) 0/5 5/5 20/100 35/100 35.1/5 45/5.
Series [6] can be described thus: HILIC, Waters XBridge BEH Amide, 100 × 2.1 mm, 2.5 µm, 0.5 mL/min, estimated dead time 0.44 min; A: water + 0.1% acetic acid + 10 mM ammonium acetate, pH 4; B: 5% water + 95% acetonitrile + 0.1% acetic acid + 10 mM ammonium acetate, pH 4; gradient (min/%B) 0/95 5/95 20/57 25/57 30/95 40/95.
Series [7] in a line: RP, Waters CORTECS T3, 100 × 2.1 mm, 2.7 µm, 0.2 mL/min, estimated dead time 1.1 min; A: water + 0.1% formic acid, pH 3; B: methanol + 0.1% formic acid, pH 3; gradient (min/%B) 0/5 5/5 25/95 25.1/100 35/100 35.1/5 45/5.
Series [8] is described as follows: RP, Waters CORTECS T3, 100 × 2.1 mm, 2.7 µm, 0.3 mL/min, estimated dead time 0.73 min; A: water + 0.1% formic acid, pH 3; B: methanol + 0.1% formic acid, pH 3; gradient (min/%B) 0/0 1/0 6/5 30/100 35/100 35.1/0 40/0.
Series [9] in a line: RP, Waters CORTECS T3, 100 × 2.1 mm, 2.7 µm, 0.2 mL/min, estimated dead time 1.1 min; A: water + 0.1% formic acid, pH 3; B: methanol + 0.1% formic acid, pH 3; gradient (min/%B) 0/0 1/0 6/5 30/100 35/100 35.1/0 40/0.
Series [10] is described as follows: RP, Waters CORTECS T3, 100 × 2.1 mm, 2.7 µm, 0.1 mL/min, estimated dead time 2.2 min; A: water + 0.1% formic acid, pH 3; B: methanol + 0.1% formic acid, pH 3; gradient (min/%B) 0/0 1/0 6/5 30/100 35/100 35.1/0 40/0.
Series [11] can be described thus: RP, Waters CORTECS T3, 100 × 2.1 mm, 2.7 µm, 0.3 mL/min, estimated dead time 0.73 min; A: water + 0.1% formic acid, pH 3; B: methanol + 0.1% formic acid, pH 3; gradient (min/%B) 0/5 5/5 25/95 25.1/100 35/100 35.1/5 45/5.
The nature of series [12]: RP, Waters ACQUITY UPLC BEH C18, 100 × 2.1 mm, 1.7 µm, 0.2 mL/min, estimated dead time 1.1 min; A: water + 0.025% formic acid + 20 mM ammonium acetate + 0.055% ammonium hydroxide, pH 7; B: methanol; gradient (min/%B) 0/5 5/5 25/100 30/100 30.1/5 35/5.
Series [13] can be described thus: RP, Waters CORTECS T3, 100 × 2.1 mm, 2.7 µm, 0.3 mL/min, estimated dead time 0.73 min; A: water + 0.1% formic acid, pH 3; B: methanol + 0.1% formic acid, pH 3; gradient (min/%B) 0/0 1/0 6/5 30/100 35/100 35.1/0 40/0. This is another data set of the same source.
Series [14] can be described thus: RP, Waters CORTECS T3, 100 × 2.1 mm, 2.7 µm, 0.2 mL/min, estimated dead time 1.1 min; A: water + 0.045% formic acid + 0.11% ammonium hydroxide, pH 7; B: methanol; gradient (min/%B) 0/5 5/5 25/95 25.1/100 35/100 35.1/5 45/5.
Series [15] in a line: RP, Waters CORTECS T3, 100 × 2.1 mm, 2.7 µm, 0.1 mL/min, estimated dead time 2.2 min; A: water + 0.1% formic acid, pH 3; B: methanol + 0.1% formic acid, pH 3; gradient (min/%B) 0/5 5/5 25/95 25.1/100 35/100 35.1/5 45/5.
Series [16] is described as follows: RP, Waters CORTECS T3, 100 × 2.1 mm, 2.7 µm, 0.15 mL/min, estimated dead time 1.5 min; A: water + 0.1% formic acid, pH 3; B: methanol + 0.1% formic acid, pH 3; gradient (min/%B) 0/0 1/0 6/5 30/100 35/100 35.1/0 40/0.
Series [17] can be described thus: RP, Waters CORTECS T3, 100 × 2.1 mm, 2.7 µm, 0.25 mL/min, estimated dead time 0.88 min; A: water + 0.1% formic acid, pH 3; B: methanol + 0.1% formic acid, pH 3; gradient (min/%B) 0/0 1/0 6/5 30/100 35/100 35.1/0 40/0.
Series [18] is described as follows: RP, Waters ACQUITY UPLC BEH C18, 100 × 2.1 mm, 1.7 µm, 0.1 mL/min, estimated dead time 2.2 min; A: water + 0.1% formic acid, pH 3; B: methanol + 0.1% formic acid, pH 3; gradient (min/%B) 0/5 5/5 25/100 30/100 30.1/5 35/5.
Series [19] can be described thus: RP, Waters CORTECS T3, 100 × 2.1 mm, 2.7 µm, 0.2 mL/min, estimated dead time 1.1 min; A: water + 0.1% formic acid, pH 3; B: methanol + 0.1% formic acid, pH 3; gradient (min/%B) 0/0 1/0 6/5 30/100 35/100 35.1/0 40/0. This is another data set of the same source.
Series [20] in a line: RP, Waters CORTECS T3, 100 × 2.1 mm, 2.7 µm, 0.3 mL/min, estimated dead time 0.73 min; A: water + 0.1% formic acid, pH 3; B: methanol + 0.1% formic acid, pH 3; gradient (min/%B) 0/0 5/0 25/100 30/100 30.1/0 35/0. This is another data set of the same source.
The nature of series [21]: RP, Waters CORTECS T3, 100 × 2.1 mm, 2.7 µm, 0.3 mL/min, estimated dead time 0.73 min; A: water + 0.1% formic acid, pH 3; B: methanol + 0.1% formic acid, pH 3; gradient (min/%B) 0/5 5/5 25/100 30/100 30.1/5 35/5.
Series [22] is described as follows: RP, Waters ACQUITY UPLC BEH C18, 100 × 2.1 mm, 1.7 µm, 0.1 mL/min, estimated dead time 2.2 min; A: water + 0.045% formic acid + 0.11% ammonium hydroxide, pH 7; B: methanol; gradient (min/%B) 0/5 5/5 25/95 25.1/100 35/100 35.1/5 45/5.

As for `O=C(O)CCCCCCCCCO` [10-HYDROXYDECANOATE], the LC retention time was 17.7 min in series [1], 1.13 min in series [2], 17.3 min in series [3] and 18.3 min in [4].

For `NC(=O)CC[C@H](N)C(=O)O` [L-GLUTAMINE], the LC retention time in series [5] is 4.84 min; in series [6], 13 min; in series [7] it was 2.48 min; in series [2] it was 12.9 min.

`COC1OC(CO)C(O)C(O)C1O` [METHYL BETA-D-GALACTOSIDE]: the values for the LC retention time in [6] and in series [2] were 4.84 min and 5.01 min, respectively.

On to `CC(=O)NCC(=O)O` [N-ACETYLGLYCINE], for which the LC retention time in series [8] is 0.95 min; in [1], 1.11 min; in [6], 11.2 min; in series [4] it was 1.46 min.

For `O=c1[nH]c(=O)c2ncn(C3OC(COP(=O)(O)O)C(O)C3O)c2[nH]1` (configuration not stated) [XANTHOSINE 5'-MONOPHOSPHATE], the LC retention time is 0.92 min in series [8]; 1.08 min in [1]; 1.35 min in series [9]; 2.67 min in [7]; 0.93 min in series [3].

Turning to `O=c1ccn(C2CC(O)C(COP(=O)(O)O)O2)c(=O)[nH]1` (configuration not stated) [2'-DEOXYURIDINE 5'-MONOPHOSPHATE], the LC retention time in [8] was 0.92 min; in series [1], 1.08 min; in series [6], 13.3 min; in series [9] it was 1.35 min; in series [7] it was 2.67 min.

As to `O=c1[nH]cc(CO)c(=O)[nH]1` [5-HYDROXYMETHYLURACIL], the figures for the LC retention time in series [8], in [1] and in series [4] were 0.9 min, 1.06 min and 1.41 min, respectively.

Turning to `Cc1cc2nc3c(=O)[nH]c(=O)nc-3n(CC(O)C(O)C(O)COP(=O)(O)OP(=O)(O)OCC3OC(n4cnc5c(N)ncnc54)C(O)C3O)c2cc1C` (configuration not stated) [FLAVIN ADENINE DINUCLEOTIDE], the LC retention time in series [8] was 12.1 min.

With `O=CNCC(=O)O` [N-FORMYLGLYCINE], the LC retention time in [3] was 0.91 min.

`Nc1cccc2ccccc12` [1-NAPHTHYLAMINE]: the LC retention time is 30.6 min in [5]; 12.1 min in series [10]; 10.3 min in series [11]; 14.7 min in series [12]; 11.8 min in [13]; 14.5 min in [14]. Also, the LC retention time in series [15] was 16.1 min; in series [16] it was 15.2 min; in [17] it was 12.6 min; in series [18], 16.5 min; in [19], 13.5 min; in [20], 11.5 min. In series [21], the LC retention time is 10.2 min.

Take `N[C@H](CO)Cc1cnc[nH]1` [L-HISTIDINOL]: the LC retention time in series [5] was 4.68 min; in [6], 11.4 min; in series [12] it was 1.79 min; in series [14], 1.54 min; in series [22], 3.33 min.

In the case of `O=c1[nH]c(=O)c2nccnc2[nH]1` [2,4-DIHYDROXYPTERIDINE], the LC retention time in series [6] was 1.7 min; in [18], 5.19 min; in series [2], 1.46 min.

Consider `Nc1ncnc2c1ncn2C1OC(COP(=O)(O)OP(=O)(O)OC2OC(CO)C(O)C(O)C2O)C(O)C1O` (configuration not stated) [ADENOSINE 5'-DIPHOSPHOGLUCOSE], for which the LC retention time was 0.92 min in [8]; 1.08 min in series [1]; 1.35 min in [9]; 0.89 min in [3]; 1.56 min in [4].

For the compound `NC(N)=N[C@@H](CC(=O)O)C(=O)O` [N-AMIDINO-L-ASPARTATE], the LC retention time in [5] is 12.7 min; in series [6] it was 14.5 min; in series [16], 1.78 min; in [20], 0.89 min.

Regarding `CC(=O)OCC(=O)C1(O)CCC2C3CCC4=CC(=O)CCC4(C)C3C(O)CC21C` (configuration not stated) [CORTISOL 21-ACETATE], the LC retention time in series [10] is 19.9 min; in series [11], 18.6 min; in series [12] it was 19.4 min; in series [13], 21.1 min; in series [14] it was 19.9 min; in series [15], 22.9 min. Further, the LC retention time is 22.9 min in [22]; 23.6 min in series [16]; 21.6 min in [17]; 22.3 min in series [18]; 22.4 min in series [19]; 18.6 min in series [20]. For the same compound, in series [21], the LC retention time is 18.1 min.

These data come from the RepoRT retention time repository (doi:10.1016/j.jchromb.2020.122105).
